Reference: patent publication US6444862B1, “Synthesis and isolation of metal alkoxides” (Mine Safety Appliances Company, priority 2000, dated 2002)

Assay: Solubility of metal alkoxide in solvent
Format: physicochemical
Settings: solution in heptane
Description: To provide a safer material, metal alkoxides are often dissolved in a solvent. In general, liquids are, for example, easier to transfer from drums or cylinders into reactors (reducing the exposure of human handlers to dangerous materials), more easily kept under an inert atmosphere, and provide more options for modes of addition to the substrate. […] The low solubilities of many alkoxides have been attributed to the ionic character and the extent of oligomerization or polymerization in solution. Another factor affecting solubility in an alcohol solvent is the propensity of alkoxides to form insoluble alcoholate complexes with the alcohol. Metal alkoxides are somewhat more soluble in polar ethereal solvents such as tetrahydrofuran and the polyethers (glymes). However, even in ethers, the solubility is generally less than 50%, especially at or below room temperature (that is, at or below 25° C.). Moreover, the range of polar solvents is somewhat limited as a result of the reactivity of the alkoxide. Furthermore, in some cases the solvent of choice for the desired reaction involving a metal alkoxide is not compatible with the alkoxide or the metal alkoxide is insoluble therein.
In one set of studies, potassium 3,7-dimethyl-3-octanoxide (KDMO), was prepared by the reaction of potassium metal with 3,7-dimethyl-3-octanol in heptane in a pressure reaction vessel. […]

SMILES: CCC(C)([O-])CCCC(C)C.[K+] (stereo not shown) [Example 1, Potassium 3,7-Dimethyl-3-octanoxide]
- concentration of alkoxide solution prepared: 70-75 wt %
